Where “and” joins values, the source holds several entries; their conditions need not be identical. Equal entries are not always repeated.
System: MDA-MB-231
Assay: shRNA barcode abundance ratio t_end/t_zero (depletion over 4 weeks of proliferation) (log2 ratio); higher = less depletion (weaker anti-proliferative effect of the shRNA)
Details: time after t zero 28 days
Method: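 Pooled lentiviral negative-selection screen of 305 pGIPZ shRNAs (Open Biosystems V2LHS clones; the 21-nt half-hairpin sense stem is embedded in a mir-30 scaffold) in MDA-MB-231 breast carcinoma cells, infected at MOI 0.3 with 0.5 ug/ml puromycin selection. Barcode abundance was read on barcode tiling microarrays (six 25-nt probes per 60-nt barcode) at t_zero (5 days post-infection) and t_end (33 days; 28 days of culture after t_zero). Values are median-normalised t_end/t_zero signal ratios, averaged over the tiling probes that passed a 10-fold background filter, from three biological replicates.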

Sequence	shRNA barcode abundance ratio t end/t zero (log2)
CCAGAGGCTTCCACTTAATAT (targeted gene: APAF1)	0.0519
CGGCTTTATGATGCTTATGAA (targeted gene: ANXA5)	0.161
CACCAGCACTTTATACACTTC (targeted gene: RHOC)	0.652
GCCTGTCCATTGGTGATGTTG (targeted gene: HMGB1)	-0.18
GCATGTTATGTTGTTCTTATT (targeted gene: XIAP)	0.25
GGGAGGTAAATCAACATATAT (targeted gene: MSH2)	0.109
CCAACTAATCTTCGAATCGAA (targeted gene: SOCS2)	0.157
CGAGACATTCGCATCAAATAT (targeted gene: NRG2)	0.219
CCATTGCCCATCGAGATTTAA (targeted gene: ACVR1)	0.196
CCATTCTGATTCTTCAGTCAT (targeted gene: TOPORS)	0.459
GCGTCGTTAATTTATTTCTTA (targeted gene: IER3)	0.159
CCTCCCTCTCAGAACCAATAA (targeted gene: DDAH2)	-0.269
GCTAACTGTGTGTACATATAT (targeted gene: PEA15)	-0.216
GGATAGACTGGTCTAGAATAA (targeted gene: RALBP1)	0.174
CGCCAGCACCGGAGGAAGAAA (targeted gene: CDKN2A)	-0.0357
GGATGCTTCTGAATAGAAATA (targeted gene: BIRC7)	0.0929
GGCATTAGTTTCTCAGTTAAA (targeted gene: MLH1)	0.141
CCAGAAGAGCCTATTACATCT (targeted gene: SOCS3)	0.25
GCTGAGACAACGTACGACAAA (targeted gene: GDNF)	-0.263
GGCTACTATGACCAATAGAAG (targeted gene: BFAR)	0.107
CCTGTTGGTGTCTTTATTATT (targeted gene: CDH1)	0.164
ACGCTGATCGAGAATGGAGAA (targeted gene: NUP62)	-0.334

Sequence	shRNA barcode abundance ratio t end/t zero (log2)
CCTCACTTTCTCCAAGAAGTT (targeted gene: MAPK8IP2)	0.0658
GGTGTCTTTACCAAACTTATT (targeted gene: HSPA9)	-0.751
GGCAAATCCTTGTTTAACAAA (targeted gene: BIRC6)	0.616
GGTCTTACTGAAGTAACACAA (targeted gene: TAX1BP1)	0.346
GCGCAAGAAATCCCGGTATAA (targeted gene: VEGFA)	0.382
GCCTTGGAACTGATGAAGATA (targeted gene: ANXA1)	0.483
CCAAAGCATTTCATTGAGAAT (targeted gene: TOPORS)	-0.193
TCACAGAGCTTTGTAAGCAAA (targeted gene: NME5)	0.139
CGGTTTGCTGAGGAGAAAGAA (targeted gene: AVEN)	0.241
CGACTCTATCAGGGTATAAAT (targeted gene: MSH2)	0.0312
GGAGTGCTCATTGTGAAGAAA (targeted gene: SORT1)	-0.0388
CAGCTTTCAGTCAGATGTATA (targeted gene: BRAF)	0.489
ACAGTTTGAGTCAACTAGAAT (targeted gene: CD28)	0.508
GCAGCTTCAGGTTTACTCAAA (targeted gene: CD28)	0.127
AGGCCTAGAGGTAACCAATAA (targeted gene: PRDX2)	-0.0855
GCTGAAGTACAGGACAATTAT (targeted gene: TAX1BP1)	0.181
GCTGTGAGTTCTGATAGGAAT (targeted gene: XIAP)	-0.186
GCAAATGGAATCTTTATGAAA (targeted gene: MALT1)	0.375
GGTGACTATACAGTCATTTAA (targeted gene: ATM)	-0.167
AGCATTGTCATGAGCTTAATA (targeted gene: API5)	0.169
CGAGTTTGTGGACTCCTTTAA (targeted gene: BAD)	-0.185
CCAGGAGAACAGTTGTTAAAT (targeted gene: HIPK3)	0.228

Sequence	shRNA barcode abundance ratio t end/t zero (log2)
GGTAAAGATGGCAAACAATAT (targeted gene: IL7)	0.391
CCGCCTCTTTGACCAGTTCTT (targeted gene: CRYAB, Cryab)	0.00542
CCACCTGGACTCCTATGAGAA (targeted gene: SOCS3)	0.145
CCATATAGTTCCTTGGGATTA (targeted gene: BCL2L2)	0.203
GGTCTCCTTAGGGAACATAAA (targeted gene: ATM)	-0.27
GCAGGTATTTGACATATTAAA (targeted gene: NFKB1)	0.38
CCTTAGCAATGTCTTAGGAAA (targeted gene: BIRC5)	-2.27
GGTCACTTTGTATATAGAATT (targeted gene: HBXIP)	0.371
GCGTGCCATGACAAAGGATAA (targeted gene: HSPA8)	-0.885
GAACTAGATCTGTTGCTTAAT (targeted gene: AVEN)	0.231
CCAAATTATGTGTTTCCGAAA (targeted gene: IGF1R)	0.502
CGTAAGATGATGGATTTGATT (targeted gene: BIRC5)	0.0401
GCAAGCAGTCTTGTGAGTTAA (targeted gene: RASA1)	-0.169 and -0.167
GCCTATATCAGCAATTGTCAT (targeted gene: ATM)	-0.178
GCTATACGAATGGGATTTGAT (targeted gene: BIRC8)	0.211
GCTTAGAACTTTAAGCAACAA (targeted gene: TNF)	-1.56
CCTCAGATTGTTGTTGTTAAT (targeted gene: IL6)	0.311
GCTGCCAAACTTCAGATAATA (targeted gene: NT5C3)	0.163
CCACAGATGTTCATAGACAAT (targeted gene: NFKB1)	0.547
GCTGGCAATTACCAGAACAAT (targeted gene: WRN)	0.0875
GCTGAGGAGGCTCAAGTTAAA (targeted gene: TGFB1)	0.277
GGATTCTCAACACTTTGAATT (targeted gene: ANXA4)	0.244

Sequence	shRNA barcode abundance ratio t end/t zero (log2)
CCAATGATGCTGCTCAAGTTA (targeted gene: ABCB1)	0.272
GGCCTGACAATGGTACCTATT (targeted gene: HDAC3)	-1.93
GGCCATGCCTGTTTACAAGAA (targeted gene: TP73)	-0.24
GCTGTAACTACTTTATAACTA (targeted gene: RHOA)	-0.0204
CGAGAGAGTTTCCCTACGTAT (targeted gene: CDH1)	0.249
GCAGATGAAGATCATCGAAAT (targeted gene: BRAF)	0.116
GGCCCATACCTTCAAATATTA (targeted gene: NFKB1)	0.381
GGTGAAGATATATTCCTCCAA (targeted gene: PTEN)	0.129
CCCGGGACTCCTGAGAACAAT (targeted gene: PRLR)	-0.387
CCTGACCTCCCTCTAATTTAT (targeted gene: IL10)	0.309
CCATTTACAGCCATTTCTAAA (targeted gene: ESR1)	0.128
TCAAATTGCGGCACATGTCAT (targeted gene: CD40LG)	-0.0903
TCAATCAAAGGGAAACTTGAA (targeted gene: TPT1)	-0.105
CCTGGCTCCTCTACTGTTTAA (targeted gene: BIRC5)	-0.954
GGCATCAGATGAATTGTTAAT (targeted gene: IL3)	0.161
GGGCATTTGAGAAATGCATAT (targeted gene: IL7)	0.11
GGAGAAATTATTGATCCAAAT (targeted gene: NAIP)	0.608
GCCCTGTACTTTAACCCAATT (targeted gene: BFAR)	0.0378
GCGAAGAACCTTGTGTGACAA (targeted gene: BCL2)	-0.0784
CCAGACTCAGTTCACTGCAAA (targeted gene: MALT1)	-0.00481

Reference: the supplement of paper PMC2824726
